The values below come from paper PMC4793533 (BMC obesity, 2016).

Series [1] can be described thus: Pharmacokinetics of radioactivity in plasma and blood after a single oral dose of [9-14C]-oleic acid, with or without formoline L112 pre-treatment. Type of series: in vivo, female Göttingen minipigs. The settings on record: untreated minipigs (group A), single oral 10 mg/kg [9-14C]-oleic acid. The procedure: The study consisted of two treatment groups, each consisting of six female Göttingen minipigs. Group A served as the untreated group (control) and group B was pre-treated with polyglucosamine as follows; the animals of group B were dosed with 2 tablets of 500 mg formoline […] (1 g formoline […] in total) followed by approximately 10 ml of water via a syringe. The 2 tablets of polyglucosamine were inserted into 2 gelatine capsules. The minipigs were trained to eat these capsules. Thereafter, animals of both groups were allowed to drink water ad libitum. […] One animal of the control group A was inadequately dosed and was omitted from the experiment. The dosing capsules were prepared the day before the dose administration based on the bodyweight determined shortly before dosing and stored under nitrogen and protected from light at 2-10 °C. Immediately following dosing all animals received approximately 10 ml of water via a syringe. After 15 min, animals were allowed to drink water and eat their morning meal. This meal was eaten within a few minutes. The animals were housed in stainless steel metabolism cages under test conditions, 48 h prior to the experimental start date (dosing). Urine and faeces was collected at ambient temperature at 24 h time intervals, starting at 2 days prior to dosing and ending at 144 h post-dose. At each collection period, the cage was rinsed with 100 mL demi-water. […] The cannula was rinsed with physiological saline after each blood sampling. After the last blood sampling of the day the cannula was filled with 3 % poly vinyl pyrrolidone (PVP) and heparin, and closed with a lid. Subsamples of whole blood were collected for analysis and the remaining blood was used for preparation of plasma by centrifugation for 10 min at 2000 g. At the end of the experiment, the cages were rinsed thoroughly with water/ethanol/Triton X-100 (100/100/1; v/v/v). The minipigs were intravenously anaesthetized via the catheter with 60 mg sodium-pentobarbital per kg bodyweight. Next, the animals were sacrificed by exsanguination from the carotid artery. At sacrifice, the complete liver and contents of the gastrointestinal tract were collected. Prior to analysis of radioactivity, the faeces, liver and contents of the gastrointestinal tract were homogenized using an ultrathurrax. Radioactivity in all samples was determined by liquid scintillation counting on a Tri-Carb 3100TR liquid scintillation counter using QuantaSmartTM software. All counts were converted to DPM using tSIE/AEC (transformed Spectral Index of external standards coupled to Automatic Efficiency Correction). Radioactivity in faeces, blood and liver tissue was determined by combustion analysis using a Packard Sample Oxidizer System 307. The CO2 formed was mixed with CarbosorbTM and PermafluorTM and measured by LSC. Kinetic analysis of radioactivity (blood/plasma) was performed using WinNonlin® 6.3 applying non-compartmental model analysis. The following kinetic parameters were calculated where the data allow: Cmax, Tmax, half-life (t1/2), the volume of distribution, clearance, the Area under the concentration-time curve (AUC) (or AUC0-n, AUC0-∞) and the Mean Residence Time (MRT). Statistical analysis was assessed by using Mann-Whitney U-test (non-parametric test) using the Brightstat.

The nature of series [2]: Recovery of radioactivity in excreta (urine, faeces, cage wash), liver and gastrointestinal tract contents. Type of series: in vivo, female Göttingen minipigs. The method, then:
The study consisted of two treatment groups, each consisting of six female Göttingen minipigs. Group A served as the untreated group (control) and group B was pre-treated with polyglucosamine as follows; the animals of group B were dosed with 2 tablets of 500 mg formoline […] (1 g formoline […] in total) followed by approximately 10 ml of water via a syringe. The 2 tablets of polyglucosamine were inserted into 2 gelatine capsules. The minipigs were trained to eat these capsules. Thereafter, animals of both groups were allowed to drink water ad libitum. […] The dosing capsules were prepared the day before the dose administration based on the bodyweight determined shortly before dosing and stored under nitrogen and protected from light at 2-10 °C. Immediately following dosing all animals received approximately 10 ml of water via a syringe. After 15 min, animals were allowed to drink water and eat their morning meal. […] The animals were housed in stainless steel metabolism cages under test conditions, 48 h prior to the experimental start date (dosing). Urine and faeces was collected at ambient temperature at 24 h time intervals, starting at 2 days prior to dosing and ending at 144 h post-dose. At each collection period, the cage was rinsed with 100 mL demi-water. […] The cannula was rinsed with physiological saline after each blood sampling. After the last blood sampling of the day the cannula was filled with 3 % poly vinyl pyrrolidone (PVP) and heparin, and closed with a lid. Subsamples of whole blood were collected for analysis and the remaining blood was used for preparation of plasma by centrifugation for 10 min at 2000 g. At the end of the experiment, the cages were rinsed thoroughly with water/ethanol/Triton X-100 (100/100/1; v/v/v). The minipigs were intravenously anaesthetized via the catheter with 60 mg sodium-pentobarbital per kg bodyweight. Next, the animals were sacrificed by exsanguination from the carotid artery. At sacrifice, the complete liver and contents of the gastrointestinal tract were collected. Prior to analysis of radioactivity, the faeces, liver and contents of the gastrointestinal tract were homogenized using an ultrathurrax. Radioactivity in all samples was determined by liquid scintillation counting on a Tri-Carb 3100TR liquid scintillation counter using QuantaSmartTM software. All counts were converted to DPM using tSIE/AEC (transformed Spectral Index of external standards coupled to Automatic Efficiency Correction). Radioactivity in faeces, blood and liver tissue was determined by combustion analysis using a Packard Sample Oxidizer System 307. The CO2 formed was mixed with CarbosorbTM and PermafluorTM and measured by LSC.

The conditions of series [3]: cited from earlier work.
The mark [4] stands for this setting: untreated minipigs, not a mass-balance study.
The mark [5] stands for this setting: up to 144 h post-dose, group A untreated, mean ± SD.

Consider `CCCCCCCC/C=[14CH]\CCCCCCCC(=O)O` [[9-^14C]-oleic acid], for which, in series [1] (blood), the “AUC(0-12h)” value was determined as 40.0 ± 4.8 µg·h/g, the “AUC(0-24h)” value was 61.7 ± 13.1 µg·h/g, the “AUC(0-48h)” value worked out at 88.3 ± 19.0 µg·h/g and the “AUC(0-60h)” value was found to be 97.2 ± 20.6 µg·h/g. In series [1] (blood), the “AUC(0-72h)” value is 105 ± 22 µg·h/g, the “AUCall(0-144h)” value amounted to 139 ± 25 µg·h/g, the Cl came out at 48.4 ± 7.9 g/h/kg and the “Cmax ([9-14C]-oleic acid and/or its metabolites)” value stood at 8.5 ± 2.2 µg/g. Moreover, in series [1] (blood), the MRTlast was found to be 43.6 ± 3.1 h, the “Tmax ([9-14C]-oleic acid and/or its metabolites)” value came out at 4 ± 3 h and the Vz stood at 8860 ± 1848 g/kg. Further, in series [1] (plasma), the “AUC(0-12h)” value was 65.6 ± 6.0 µg·h/g, the “AUC(0-24h)” value stood at 98.4 ± 17.2 µg·h/g, the “AUC(0-48h)” value is 136 ± 28 µg·h/g and the “AUC(0-60h)” value amounted to 148 ± 31 µg·h/g. Besides, in series [1] (plasma), the “AUC(0-72h)” value stood at 157 ± 32 µg·h/g, the “AUCall(0-144h)” value was 190 ± 38 µg·h/g, the Cl is on record as 40.7 ± 5.5 g/h/kg and the “Cmax ([9-14C]-oleic acid and/or its metabolites)” value was 14.1 ± 3.6 µg/g. In series [1] (plasma), the MRTlast is given as 35.9 ± 1.8 h, the “Tmax ([9-14C]-oleic acid and/or its metabolites)” value was 4 ± 3 h and the Vz was found to be 7008 ± 2962 g/kg. Besides, the “Recovery of radioactivity in urine” value in series [2] (0–24 h, group A untreated, mean ± SD) is recorded as 0.79 ± 0.05 % of the applied dose. In addition, in series [2] (24–48 h, group A untreated, mean ± SD), the “Recovery of radioactivity in urine” value was 0.28 ± 0.10 % of the applied dose. Moreover, the “Recovery of radioactivity in urine” value in series [2] (48–72 h, group A untreated, mean ± SD) is reported as 0.09 ± 0.08 % of the applied dose. Also, the “Recovery of radioactivity in urine” value in series [2] (72–96 h, group A untreated, mean ± SD) is given as 0.08 ± 0.05 % of the applied dose. Moreover, the “Recovery of radioactivity in urine” value in series [2] (96–120 h, group A untreated, mean ± SD) was 0.05 ± 0.03 % of the applied dose. In addition, the “Recovery of radioactivity in urine” value in series [2] (120–144 h, group A untreated, mean ± SD) is 0.03 ± 0.00 % of the applied dose. Further, the “Recovery of radioactivity in urine” value in series [2] (-24–0 h (pre-dose), group A untreated, mean ± SD) is 0.01 ± 0.00 % of the applied dose. Further, the “Recovery of radioactivity in urine” value in series [2] (-48–24 h (pre-dose), group A untreated, mean ± SD) is on record as 0.00 ± 0.01 % of the applied dose. Besides, in series [2] (group A untreated, mean ± SD), the “Recovery of radioactivity in Cagewash” value is 0.07 ± 0.07 % of the applied dose; the “Recovery of radioactivity in GI-tract contents at sacrifice (144 h post-dose)” value is listed as 0.08 ± 0.04 % of the applied dose; the “Recovery of radioactivity in Liver at sacrifice (144 h post-dose)” value is on record as 0.37 ± 0.07 % of the applied dose; the “Total excreted (sum urine, faeces, cagewash)” value is 7.90 ± 3.13 % of the applied dose. Besides, in series [2] (setting [4]), the “Overall recovery of the dosed amount of radioactivity (based on the AUC0-12h)” value came out at 34.7% and the “Overall recovery of the dosed amount of radioactivity (based on the Cmax)” value was 13.9%. Further, in series [2] (setting [5]), the “Recovery of radioactivity in faeces, Total” value is 6.51 ± 2.88 % of the applied dose and the “Recovery of radioactivity in urine, Total” value is recorded as 1.33 ± 0.20 % of the applied dose.
`CCCCCCCC/C=C\CCCCCCCC(=O)O` [oleic acid]: the “Excreted in the faeces” value in series [3] (31 test persons with normal fat assimilation, oral doses, radioactively labelled, after 6 days) is on record as “less than 10%”. The “Absorption after oral administration” value in series [3] (untreated subjects) was “absorbed practically completely”.
